Here are results for 2 compounds from ChEMBL document CHEMBL5608167, “Nanomaterials-based advanced systems for photothermal / photodynamic therapy of oral cancer” (2024).

For one test, the system named is HeLa. In words: Antitumor activity against human HeLa cells xenografted in mouse model assessed as tumor growth inhibition at 20 mg/kg treated for 10 days relative to control. The format is functional. On the set-up: scale not given: the % may be the effect or the level left. The following applies: time 10 day.
The test system of another test is CAL-27. The experiment in a line: Inhibition of cell proliferation in human CAL-27 cells at 1uM incubated for 72 hrs by MTT assay relative to control. The format is functional. Background: Formazan colour is commonly taken as a measure of viable cells.

On to `CCOCCNC(=O)/C(C)=C\C[C@@]12OC(C)(C)[C@@H]3C[C@@H](C=C4C(=O)c5c(O)c(C/C=C(\C)CCC=C(C)C)c(O)c(CC=C(C)C)c5O[C@]431)C2=O`, for which the Activity with HeLa is recorded as 70%.

What is called inhibition is the percentage by which the read-out fell short of the control. `NCC(=O)CCC(=O)O` [AMINOLEVULINIC ACID] had an inhibition at 1 µM with CAL-27 of 75.4%.
